The values below come from patent publication US12479827B2, “Heteroaromatic carboxamide derivatives as plasma kallikrein inhibitors” (Boehringer Ingelheim International GmbH, priority 2020, dated 2025).

In assay [1] the target is T1, PKK in kaolin activated human platelet poor plasma (Homo sapiens, UniProt P03952).
T1 construct: Platelet poor plasma (PPP) obtained from human wholeblood; from tissue
The assay is described as follows: Inhibition of PKK in kaolin activated human PPP.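 Further: readout is the rate of fluorogenic substrate cleavage in rfu per min.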 The format is biochemical. Conditions: 25-750 μg/mL kaolin, global fit, text b200 calls the values IC90. The protocol: Platelet poor plasma (PPP) obtained from human wholeblood, anticoagulated with Na-Citrate, is incubated with various concentrations of the test compound together with either 25, 75, 250, or 750 μg/mL kaolin in assay buffer for 20 min at 37° C. such that for each kaolin dose used a concentration response is obtained for the test compound.

The target of assay [2] is T2, Human PKK (Homo sapiens, UniProt P03952).
T2 construct: purchased Enzyme Research Laboratories
T2 sequence (P03952 20-390 limits assumed): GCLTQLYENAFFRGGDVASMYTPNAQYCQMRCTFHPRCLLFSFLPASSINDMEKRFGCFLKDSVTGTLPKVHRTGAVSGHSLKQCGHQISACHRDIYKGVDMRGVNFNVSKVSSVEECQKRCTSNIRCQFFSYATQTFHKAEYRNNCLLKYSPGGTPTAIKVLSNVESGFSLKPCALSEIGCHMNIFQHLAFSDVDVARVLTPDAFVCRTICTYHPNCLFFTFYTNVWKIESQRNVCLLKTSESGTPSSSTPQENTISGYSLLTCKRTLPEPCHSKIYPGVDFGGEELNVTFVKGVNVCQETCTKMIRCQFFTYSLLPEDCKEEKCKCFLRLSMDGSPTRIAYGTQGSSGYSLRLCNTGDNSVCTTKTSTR
T2 sequence (P03952 391-638 limits assumed): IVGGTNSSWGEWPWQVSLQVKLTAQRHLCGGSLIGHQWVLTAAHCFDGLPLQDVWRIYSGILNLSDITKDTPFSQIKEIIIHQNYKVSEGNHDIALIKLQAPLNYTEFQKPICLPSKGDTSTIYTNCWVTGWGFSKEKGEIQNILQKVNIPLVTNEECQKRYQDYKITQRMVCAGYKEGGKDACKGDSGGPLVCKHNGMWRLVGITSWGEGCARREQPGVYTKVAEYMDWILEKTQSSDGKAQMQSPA
The assay is described as follows: Inhibition of PKK using an endpoint assay (human PKK). The format is biochemical. Conditions: fluorogenic substrate H-Pro-Phe-Arg-AMC, 1 h room temperature, method names human or rat PKK, table does not say which. The protocol: The ability of compounds of formula (I) to inhibit plasma kallikrein (PKK), Factor XIIa (FXIIa), Factor XIa (FXIa), Factor Xa (FXa), Factor IIa (alpha-thrombin; FIIa), plasmin, trypsin, tissue kallikrein 1 (TK1), Factor VIIa (FVIIa), or FVIIa complexed with Tissue Factor, phospholipids and CaCl2 (FVIIa/TF/PL/CaCl2) is determined using the following biochemical assays in assay buffer (100 mM Tris, 150 mM NaCL, adjusted to a pH of 7.8 with HCl, and containing 0.1% (w/v) BSA and 0.05% (v/v) Tween20) in the presence of 1% (v/v) DMSO:
Subsequently, PPACK II (Calbiochem) is added as a stop solution to achieve a final concentration of 1 μM and fluorescence is measured using an Envision Reader (PerkinElmer) with the wavelength excitation setting of 355 nm and the wavelength emission setting of 460 nm.

Each structure is given as a SMILES string.

T1 sequence (P03952 391-638 limits assumed): as above
T1 sequence (P03952 20-390 limits assumed): as the sequence (P03952 20-390 limits assumed) above

As to `Cn1cnc2c1CC[C@H]2NC(=O)c1cn(Cc2ccc(N3CC4C(C3)C4(F)F)nc2Cl)nn1` (stereo partly drawn) [Example 1, 1-[(2-Chloro-6-{6,6-difluoro-3-azabicyclo[3.1.0]hexan-3-yl}pyridin-3-yl)methyl]-N-[(4R)-1-methyl-1H,4H,5H,6H-cyclopenta[d]imidazol-4-yl]-1H-1,2,3-triazole-4-carboxamide], the results for the IC50 in assay [1] and in assay [2] were 290 nM and 1.3 nM, respectively.

Consider `COCc1nc(N2CC3C(C2)C3(F)F)ccc1Cn1cc(C(=O)N[C@@H]2CCc3c2ncn3C)cn1` (stereo partly drawn) [Example 2, 1-[(6-{6,6-Difluoro-3-azabicyclo[3.1.0]hexan-3-yl}-2-(methoxymethyl)pyridin-3-yl)methyl]-N-[(4R)-1-methyl-1H,4H,5H,6H-cyclopenta[d]-imidazol-4-yl]-1H-pyrazole-4-carboxamide], for which the IC50 worked out at 253 nM in assay [1] and 3.1 nM in assay [2].

With `Cn1cnc2c1CC[C@H]2NC(=O)c1cn(Cc2ccc(N3CC4(CC4)C3)nc2Cl)nn1` [Example 5, 1-[(6-{5-Azaspiro[2.3]hexan-5-yl}-2-chloropyridin-3-yl)methyl]-N-[(4R)-1-methyl-1H,4H,5H,6H-cyclo-penta[d]imidazol-4-yl]-1H-1,2,3-triazole-4-carboxamide], the IC50 in assay [1] was found to be 278 nM; in assay [2] it was 1.1 nM.

With `Cn1cnc2c1CC[C@H]2NC(=O)c1cn(Cc2ccc(N3CC4(CC4)C3)nc2Br)nn1` [Example 6, 1-[(6-{5-Azaspiro[2.3]hexan-5-yl}-2-bromopyridin-3-yl)methyl]-N-[(4R)-1-methyl-1H,4H,5H,6H-cyclo-penta[d]imidazol-4-yl]-1H-1,2,3-triazole-4-carboxamide], the IC50 amounted to 1880 nM in assay [1] and 0.9 nM in assay [2].

For the molecule `Cn1cnc2c1CC[C@H]2NC(=O)c1cn(Cc2ccc(N3CC4C(C3)C4(F)F)nc2F)cn1` (stereo partly drawn) [Example 7, 1-[(6-{6,6-Difluoro-3-azabicyclo[3.1.0]hexan-3-yl}-2-fluoropyridin-3-yl)methyl]-N-[(4R)-1-methyl-1H,4H,5H,6H-cyclopenta[d]imidazol-4-yl]-1H-imidazole-4-carboxamide], the IC50 in assay [1] came to 151 nM; in assay [2], 1.4 nM.

Consider `Cn1cnc2c1CC[C@H]2NC(=O)c1cn(Cc2ccc(N3CC4CC4C3)cn2)nn1` (stereo partly drawn) [Example 8, 1-[(5-{3-Azabicyclo[3.1.0]hexan-3-yl}pyridin-2-yl)methyl]-N-[(4R)-1-methyl-1H,4H,5H,6H-cyclopenta[d]imidazol-4-yl]-1H-1,2,3-triazole-4-carboxamide], for which the figures for the IC50 in assay [1] and in assay [2] were 352 nM and 2.3 nM, respectively.

In assay [2], `Cc1nc(N2C[C@@]3(C)C[C@@]3(C)C2)ncc1Cn1cc(C(=O)N[C@@H]2CCc3c2ncn3C)cn1` [Example 225, 1-({2-[(1R,5S)-1,5-Dimethyl-3-azabicyclo[3.1.0]hexan-3-yl]-4-methylpyrimidin-5-yl}methyl)-N-[(4R)-1-methyl-1H,4H,5H,6H-cyclopenta[d]imidazol-4-yl]-1H-pyrazole-4-carboxamide] returned an IC50 of 232 nM.

As for `Cc1nc(N2CC3(CCC3)C2)ncc1Cn1cc(C(=O)N[C@@H]2CCc3c2ncn3C)cn1` [Example 226, 1-[(2-{2-Azaspiro[3.3]heptan-2-yl}-4-methylpyrimidin-5-yl)methyl]-N-[(4R)-1-methyl-1H,4H,5H,6H-cyclopenta[d]imidazol-4-yl]-1H-pyrazole-4-carboxamide], in assay [2], half-maximal inhibition (IC50) required 35.7 nM.

`Cc1nc(N2CCC3CC3C2)ncc1Cn1cc(C(=O)N[C@@H]2CCc3c2ncn3C)cn1` (stereo partly drawn) [Example 227, 1-[(2-{3-Azabicyclo[4.1.0]heptan-3-yl]-4-methylpyrimidin-5-yl)methyl]-N-[(4R)-1-methyl-1H,4H,5H,6H-cyclopenta[d]imidazol-4-yl]-1H-pyrazole-4-carboxamide] registered an IC50 in assay [2] of 45.3 nM.

In turn, `Cc1nc(N2CC3C(C2)C3(C)C)ncc1Cn1cc(C(=O)N[C@@H]2CCc3c2ncn3C)cn1` (stereo partly drawn) [Example 228, 1-[(2-{6,6-Dimethyl-3-azabicyclo[3.1.0]hexan-3-yl}-4-methylpyrimidin-5-yl)methyl]-N-[(4R)-1-methyl-1H,4H,5H,6H-cyclopenta[d]imidazol-4-yl]-1H-pyrazole-4-carboxamide] gave an IC50 in assay [2] of 126 nM.

As to `Cc1nc(N2C[C@@H]3[C@@H](C)[C@@H]3C2)ncc1Cn1cc(C(=O)N[C@@H]2CCc3c2ncn3C)cn1` [Example 229, N-[(4R)-1-Methyl-1H,4H,5H,6H-cyclopenta[d]imidazol-4-yl]-1-({4-methyl-2-[(1R,5S,6R)-6-methyl-3-azabicyclo[3.1.0]hexan-3-yl]pyrimidin-5-yl}methyl)-1H-pyrazole-4-carboxamide], in assay [2], half-maximal inhibition (IC50) was put at 110 nM.

Turning to `Cc1nc(N2CCC3(CC3)C2)ncc1Cn1cc(C(=O)N[C@@H]2CCc3c2ncn3C)cn1` [Example 230, 1-[(2-{5-Azaspiro[2.4]heptan-5-yl}-4-methylpyrimidin-5-yl)methyl]-N-[(4R)-1-methyl-1H,4H,5H,6H-cyclopenta[d]imidazol-4-yl]-1H-pyrazole-4-carboxamide], the IC50 in assay [2] was determined as 53.7 nM.

In assay [2], `Cc1nc(N2CC3CC(C2)O3)ncc1Cn1cc(C(=O)N[C@@H]2CCc3c2ncn3C)cn1` [Example 231, N-[(4R)-1-Methyl-1H,4H,5H,6H-cyclopenta[d]imidazol-4-yl]-1-[(4-methyl-2-{6-oxa-3-azabicyclo[3.1.1]heptan-3-yl}pyrimidin-5-yl)methyl]-1H-pyrazole-4-carboxamide] displayed an IC50 of 223 nM.

Take `Cc1nc(N2CCCC3(CC3)C2)ncc1Cn1cc(C(=O)N[C@@H]2CCc3c2ncn3C)cn1` [Example 232, 1-[(2-{5-Azaspiro[2.5]octan-5-yl}-4-methylpyrimidin-5-yl)methyl]-N-[(4R)-1-methyl-1H,4H,5H,6H-cyclopenta[d]imidazol-4-yl]-1H-pyrazole-4-carboxamide]: in assay [2], the IC50 was found to be 512 nM.

With `COC1C2CC1CN(c1ncc(Cn3cc(C(=O)N[C@@H]4CCc5c4ncn5C)cn3)c(C)n1)C2` (stereo partly drawn) [Example 233, 1-[(2-{6-Methoxy-3-azabicyclo[3.1.1]heptan-3-yl}-4-methylpyrimidin-5-yl)methyl]-N-[(4R)-1-methyl-1H,4H,5H,6H-cyclopenta[d]imidazol-4-yl]-1H-pyrazole-4-carboxamide], the midpoint of inhibition in assay [2], the IC50, lay at 81.4 nM.

In turn, `CO[C@H]1[C@@H]2CC[C@H]1CN(c1ncc(Cn3cc(C(=O)N[C@@H]4CCc5c4ncn5C)cn3)c(C)n1)C2` [Example 234, 1-({2-[(1R,5S,8R)-8-Methoxy-3-azabicyclo[3.2.1]octan-3-yl]-4-methylpyrimidin-5-yl}methyl)-N-[(4R)-1-methyl-1H,4H,5H,6H-cyclopenta[d]imidazol-4-yl]-1H-pyrazole-4-carboxamide] yielded an IC50 in assay [2] of 350 nM.

In assay [2], `Cc1nc(N2C[C@@H]3[C@@H](CO)[C@@H]3C2)ncc1Cn1cc(C(=O)N[C@@H]2CCc3c2ncn3C)cn1` [Example 235, 1-({2-[(1R,5S,6S)-6-(Hydroxymethyl)-3-azabicyclo[3.1.0]hexan-3-yl]-4-methylpyrimidin-5-yl}methyl)-N-[(4R)-1-methyl-1H,4H,5H,6H-cyclopenta[d]imidazol-4-yl]-1H-pyrazole-4-carboxamide] displayed an IC50 of 214 nM.

Take `Cc1nc(N2C[C@@H]3[C@@H](O)[C@@H]3C2)ncc1Cn1cc(C(=O)N[C@@H]2CCc3c2ncn3C)cn1` [Example 236, 1-({2-[(1R,5S,6S)-6-Hydroxy-3-azabicyclo[3.1.0]hexan-3-yl]-4-methylpyrimidin-5-yl}methyl)-N-[(4R)-1-methyl-1H,4H,5H,6H-cyclopenta[d]imidazol-4-yl]-1H-pyrazole-4-carboxamide]: inhibition in assay [2] was half-maximal at 222 nM (IC50).

For the molecule `Cc1nc(N2CCC3(CC2)CC3)ncc1Cn1cc(C(=O)N[C@@H]2CCc3c2ncn3C)cn1` [Example 237, 1-[(2-{6-Azaspiro[2.5]octan-6-yl}-4-methylpyrimidin-5-yl)methyl]-N-[(4R)-1-methyl-1H,4H,5H,6H-cyclopenta[d]imidazol-4-yl]-1H-pyrazole-4-carboxamide], it took 111 nM to reach half-maximal inhibition in assay [2] (IC50).

On to `Cc1nc(N2CC3CCC3C2)ncc1Cn1cc(C(=O)N[C@@H]2CCc3c2ncn3C)cn1` (stereo partly drawn) [Example 238, 1-[(2-{3-Azabicyclo[3.2.0]heptan-3-yl}-4-methylpyrimidin-5-yl)methyl]-N-[(4R)-1-methyl-1H,4H,5H,6H-cyclopenta[d]imidazol-4-yl]-1H-pyrazole-4-carboxamide], for which half-maximal inhibition in assay [2] (IC50) required 123 nM.

For the molecule `Cc1nc(N2CC3CCCC3C2)ncc1Cn1cc(C(=O)N[C@@H]2CCc3c2ncn3C)cn1` (stereo partly drawn) [Example 239, N-[(4R)-1-Methyl-1H,4H,5H,6H-cyclopenta[d]imidazol-4-yl]-1-[(4-methyl-2-{octahydrocyclopenta[c]pyrrol-2-yl}pyrimidin-5-yl)methyl]-1H-pyrazole-4-carboxamide], in assay [2], the IC50 was 123 nM.

In assay [2], `Cc1nc(N2CCC3(CCC3)C2)ncc1Cn1cc(C(=O)N[C@@H]2CCc3c2ncn3C)cn1` [Example 240, 1-[(2-{6-Azaspiro[3.4]octan-6-yl}-4-methylpyrimidin-5-yl)methyl]-N-[(4R)-1-methyl-1H,4H,5H,6H-cyclopenta[d]imidazol-4-yl]-1H-pyrazole-4-carboxamide] came in with an IC50 of 52 nM.

A word on the IC50: it is the point on the concentration scale where inhibition reaches its midpoint.
